Data set [1] has as its target T1, E3 ubiquitin-protein ligase RNF126/Serine/threonine-protein kinase RIO2 (Homo sapiens, UniProt Q9BVS4+Q9BV68). Kind of data set: Molecular glue degradation activity at RNF126/RIOK2 in CHX-treated human MOLT-4 cells assessed as half life of RIOK2 at 2 uM by immunoblot analysis (reference value: 12.5 hrs). The data set is classed as cell-based. In general terms: In western blotting, separated proteins are transferred to a membrane and probed.
Target sequence in this assay (Q9BV68 2-311 partner limits assumed): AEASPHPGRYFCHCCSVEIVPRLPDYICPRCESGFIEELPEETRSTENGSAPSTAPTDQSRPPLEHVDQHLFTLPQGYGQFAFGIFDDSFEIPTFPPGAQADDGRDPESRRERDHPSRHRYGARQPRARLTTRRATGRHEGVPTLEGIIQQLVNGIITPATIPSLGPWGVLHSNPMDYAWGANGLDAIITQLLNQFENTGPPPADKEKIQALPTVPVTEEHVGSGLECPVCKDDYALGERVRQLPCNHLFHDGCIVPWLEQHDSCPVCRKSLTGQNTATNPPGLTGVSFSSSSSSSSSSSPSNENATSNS
Target sequence in this assay (Q9BVS4 whole entry): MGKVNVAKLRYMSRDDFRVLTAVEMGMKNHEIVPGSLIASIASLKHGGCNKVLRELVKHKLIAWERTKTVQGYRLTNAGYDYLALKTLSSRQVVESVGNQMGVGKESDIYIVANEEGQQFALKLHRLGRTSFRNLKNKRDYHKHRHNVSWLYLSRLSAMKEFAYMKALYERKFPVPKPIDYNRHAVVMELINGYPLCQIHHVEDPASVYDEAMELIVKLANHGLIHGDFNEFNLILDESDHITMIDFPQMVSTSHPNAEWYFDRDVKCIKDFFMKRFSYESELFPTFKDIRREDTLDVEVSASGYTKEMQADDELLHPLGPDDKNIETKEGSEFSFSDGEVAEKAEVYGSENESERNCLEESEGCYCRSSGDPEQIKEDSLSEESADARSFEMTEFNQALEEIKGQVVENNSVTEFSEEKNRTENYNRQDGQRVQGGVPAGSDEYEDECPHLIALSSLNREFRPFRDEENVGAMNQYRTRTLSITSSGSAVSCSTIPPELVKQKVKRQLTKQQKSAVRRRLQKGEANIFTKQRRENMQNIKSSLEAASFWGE

Data set [2] concerns the target T1, E3 ubiquitin-protein ligase RNF126/Serine/threonine-protein kinase RIO2. The data set can be described thus: Molecular glue degradation activity at RNF126/RIOK2 in human OCILY3 cells assessed as induction protein degradation by immunoblot analysis. The data set is classed as cell-based.
Target sequence in this assay (Q9BVS4 whole entry): as above
Target sequence in this assay (Q9BV68 whole entry): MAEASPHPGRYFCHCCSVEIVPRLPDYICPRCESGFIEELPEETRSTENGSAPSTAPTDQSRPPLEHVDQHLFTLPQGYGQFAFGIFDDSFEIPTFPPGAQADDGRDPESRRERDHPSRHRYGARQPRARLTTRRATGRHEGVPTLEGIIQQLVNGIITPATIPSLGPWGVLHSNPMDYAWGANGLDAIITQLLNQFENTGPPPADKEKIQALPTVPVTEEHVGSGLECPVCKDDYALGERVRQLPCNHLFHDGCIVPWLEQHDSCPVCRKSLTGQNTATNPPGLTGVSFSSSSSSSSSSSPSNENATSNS
Data set [3] concerns U-937. Kind of data set: Antiproliferative activity against human U-937 cells incubated for 72 hrs by CCK8 assay. It counts as functional, cell-based. The settings on record: U-937, 72 h. On the technique in general: Tetrazolium dyes change colour on reduction, which living cells bring about.
Data set [4] has as its system K562. The data set can be described thus: Antiproliferative activity against human K562 cells incubated for 72 hrs by CCK8 assay. It counts as functional, cell-based. The settings on record: K562, 72 h.
The test system of data set [5] is A549. Kind of data set: Antiproliferative activity against human A549 cells incubated for 72 hrs by CCK8 assay. The data set is classed as functional, cell-based. The settings on record: A549, 72 h.
The target in data set [6] is T1, E3 ubiquitin-protein ligase RNF126/Serine/threonine-protein kinase RIO2. Kind of data set: Molecular glue degradation activity at RNF126/RIOK2 in human MOLT-4 cells assessed as decrease in mTOR level at 500 nM incubated for 12 hrs by immunoblot analysis. It counts as cell-based.
Target sequence in this assay (Q9BV68 2-311 partner limits assumed): as the sequence (Q9BV68 2-311 partner limits assumed) above
Target sequence in this assay (Q9BVS4 whole entry): as the sequence (Q9BVS4 whole entry) above
The subject of data set [7] is MOLT-4. Kind of data set: Induction of cell cycle arrest in human MOLT-4 cells assessed as accumulation at G2/M phase incubated for 24 hrs by PI staining based flow cytometry. The data set is classed as functional. As to conditions: dose <= 900.0 nM.
Data set [8] is described as follows: AUClast in Sprague-Dawley rat at 5 mg/kg, iv measured for 24 hrs. It counts as ADME, organism-based. The settings on record: in vivo.
The nature of data set [9]: Half life in Sprague-Dawley rat at 5 mg/kg, iv measured for 24 hrs. The data set is classed as ADME, organism-based. As to conditions: in vivo.
Data set [10] in a line: Oral bioavailability in Sprague-Dawley rat at 10 mg/kg measured for 24 hrs. The settings on record: in vivo. The data set is classed as ADME, organism-based.
Data set [11] concerns Mus musculus. The data set can be described thus: In vivo molecular glue degradation activity at RNF126/RIOK2 in SCID-CB17 mouse xenografted with human MOLT-4 cells assessed as induction of RIOK2 degradation in tumor at 10 mg/kg, ip for 18 days measured after 4 hrs post-last dose. It counts as functional, organism-based. The settings on record: time 436.0 hrs.

The source made the active and inactive calls.

The results in this text go back to ChEMBL document CHEMBL6078724, “Discovery of the first examples of right open reading frame kinase 2 (RIOK2) molecular glue degraders” (Eur J Med Chem, 2025).

In general, DC50 refers to the midpoint of the concentration-degradation curve. What is called IC50 is the concentration that inhibits the measured activity by half. A low value points to inhibition by little substance. What is called half-life is the time needed for the level to fall by half in the phase considered. Read a high half-life as slow decline. One may read the bioavailability as the share of a dose that reaches the circulation, judged against a reference dose that is usually intravenous. Lower therefore signals poor availability.

For `COc1ccc(-c2ccc3[nH]c(=O)c4nnn(-c5ccc(N6CCN(C(=O)/C=C/C(=O)c7ccc(F)cc7)CC6)c(C(F)(F)F)c5)c4c3c2)cn1`, the T1/2 in data set [1] was 9.6 h. The half-maximal degradation concentration (DC50) in [2] was 0.45 µM. The values for the IC50 in [3], in [4] and in [5] were 0.41 µM, 1.14 µM and 1.06 µM, respectively. Further, the outcome in [6] and in [11] was Active. Further, the Activity result in data set [7] is “Dose-dependent-effect”. Further, the AUClast in data set [8] was 1.21 µg·h/mL. This compound had a half-life in data set [9] of 0.6 h. In data set [10], this compound returned a bioavailability of 49.7%.
